Data set [1] deals with E. coli NDM-1. The protocol:
(§1) In parallel, a control set was incubated without compounds for 50 min, followed by incubation with 75 μM meropenem trihydrate for 10 min. Cells were then pelleted, washed, resuspended in water, lysed, and clarified before LC-MS analysis.
(§2) 1.12 LC-MS accumulation assay
(§3) 1.12.1 Bacterial Strains and Growth Conditions:
(§4) Accumulation assay was performed two E. coli K-12 MG1655 strains transfected with pSU18 vector containing NDM-1 expression or an empty vector control. Cell growth was performed in Luria-Bertani (LB) broth (NaCl 10g/L, K2HPO4 6.3 g/L, KH2PO4 1.8 g/L, sodium citrate […]
(§5) 1.12.2 Preparation of Accumulation Assay Samples for LC-MS Analysis:
(§6) Assay was adapted from the work of Geddes et al. and Widya et al.9–11 E. coli MG1655 pSU18 NDM-1 and pSU18 Empty were grown from single colonies at 37 °C with aeration, while shaking at 180 rpm for 18 hours. The overnight suspensions were subcultured (1:100) in fresh LB and incubated to yield an OD600 of 0.55-0.60. The were harvested and pelleted at 3500 × g for 15 minutes at 4 °C. The pellets were washed with Meuller -Hinton II (MHII) broth and pelleted again under the same conditions. The pellets were resuspended in a n adjusted volume of fresh MHII to achieve an OD 600 ≈ 10.0. Shielded from ambient light, cells were incubated with 320 μM of metal complex for 1 hour while shaking at 180 rpm. Separately, another set of cells was incubated under identical conditions without any added metal complex. Cells […]
(§7) incubated with metal complex were maintained incubating under the same conditions for an additional 10 minutes, while the second set of cells was incubated with 75 μM of meropenem trihydrate for 10 minutes. After treatment, 10 μL of each cell suspension was taken and dilution 1:10 PBSA for OD600 viability analysis. A 150 μL aliquot of each cell suspension was layered onto 150 μL of cold silicone oil mixture (1:9, v/v AR20:High temperature silicone oil) and centrifuged at 3500 × g for 1 hour at 4 °C. The aqu eous and oil supernatant were carefully aspirated to isolate the cell pellets, which were resuspended in 50 μL of water and transferred to a fresh microplate. For lysis, a 1:1 (v/v) mixture of acetonitrile and methanol was added to each sample, and the sam ples were freeze thawed at -80 °C for approximately 18 hours.
(§8) Thawed samples were clarified by two rounds of centrifugation at 3500 × g for 1 hour at 4 °C, […]
(§9) External calibration curves were prepared by mixing compound at increasing concentration with extracted cell lysate (prepared in parallel to analyte containing samples) in concentrations […]
(§10) nM were also prepared to assess quantitative accuracy. Samples were submitted to LCMS analysis as biological triplicate using a single calibration curve. […]
(§11) was spiked into each calibration and analyte sampl e as an internal standard.

In data set [2] the test system is E. coli empty. How it is done: as §1, §2, §3, §4, §5, §6, §7, §8, §9, §10, §11
Data set [3] deals with T1, NDM-1 (Klebsiella pneumoniae, UniProt C7C422). The conditions noted are these: in words.
T1 sequence (C7C422 31-270 limits assumed): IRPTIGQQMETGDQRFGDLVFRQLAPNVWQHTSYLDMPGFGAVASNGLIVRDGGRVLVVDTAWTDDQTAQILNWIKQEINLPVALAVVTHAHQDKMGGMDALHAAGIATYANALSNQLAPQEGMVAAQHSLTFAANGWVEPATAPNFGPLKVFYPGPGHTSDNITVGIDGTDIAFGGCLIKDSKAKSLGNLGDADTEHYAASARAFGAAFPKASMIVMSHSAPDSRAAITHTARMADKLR
Method: (§12) 1.4.1 Differential Scanning Fluorimetry (DSF)
(§13) DSF was performed using the Applied Biosystems QuantStudio 5 thermal cycler (Thermo
(§14) Fisher Scientific). Results were analysed and Tm determined with the Applied Biosystems
(§15) Protein Thermal Shift Software v1.4 and Tm values determined by the software. DSF was
(§16) conducted in sealed MicroAmp Optical 384-Well Reaction Plates (Thermo Fisher Scientific).
(§17) at a temperature ramp rate of 0.03 °C/s. For compound-protein interaction studies, a final
(§18) containing 5X SYPRO Orange (Thermo Fisher Scientific), 50 mM HEPES and 5%(v/v)
(§19) DMSO-d6. The final reaction volume was 20 µL per well. All DMSO compound stocks used
(§20) for DSF experiments were freshly prepared from solid stocks. All DSF measurements were
(§21) carried out in triplicate and the Tm reported is the mean value and the error is the standard
(§22) deviation. For all compounds tested, a no protein control run was included to see potential
(§23) changes in fluorescence resulting from a compound-dye interaction.
The target in data set [4] is T1, NDM-1. The conditions noted are these: 450 nm, 20 J cm^-2.
Data set [5] deals with T2, NDM-1 in E. coli NDM-1 (Klebsiella pneumoniae, UniProt C7C422). The conditions noted are these: E. coli NDM-1, 450 nm, 60 J cm^-2.
T2 sequence (C7C422 29-270 limits assumed): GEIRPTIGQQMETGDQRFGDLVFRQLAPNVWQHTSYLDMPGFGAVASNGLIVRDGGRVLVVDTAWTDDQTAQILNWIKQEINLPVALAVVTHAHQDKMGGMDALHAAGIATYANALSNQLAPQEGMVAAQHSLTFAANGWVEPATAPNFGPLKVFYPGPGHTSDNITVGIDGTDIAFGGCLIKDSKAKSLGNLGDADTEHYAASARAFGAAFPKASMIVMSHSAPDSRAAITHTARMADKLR
Method: (§24) shaking at 180 rpm for 18 hours. The overnight suspensions were subcultured (1:100) in fresh LB and incubated to yield an OD600 of 0.55-0.60. The were harvested and pelleted at 3500  g for 15 minutes at 4 °C. The pellets were washed with PBS and pelleted again under the same
(§25) conditions. The bacteria were then stored as pellets at 4 C until required for the assay and to
(§26) be used within 5 hours. To prepare the bacteria fo r the assay, a pellet was resuspended in an
(§27) adjusted volume of fresh PBS to achieve an OD600 ≈ 5.0 and then kept at 4 C for 1 hr before
(§28) being used. The bacteria were then diluted to OD600 ≈ 2.0 in fresh PBS and used immediately.
(§29) inhibitor control, and one row of Bacteria Buffer B (50 µL) which served as a no-bacteria
(§30) control (providing five rows in total). Bacteria stock (OD600 ≈ 2.0, 40 µL, final concentration
(§31) of bacteria in well = OD600 ≈ 0.8) was added to each well of the first four rows, the plate was
(§32) sealed, and the samples then pre-incubated for 60 min under either ‘dark’ or ‘light’ conditions
(§33) Under ‘dark’ conditions, the plate was left sealed in a
(§34) substrate in well = 100 µM) was conducted manually and then the plate immediately resealed
(§35) substrate had been completely consumed. Method conditions are as follows: cycle time = 100
For data set [6], the system named is E. coli NDM-1. This is another data set of the same source.
Method: based screening experiments were performed in biological triplicate, each replicate starting
from a new single colony inoculation. Statistical significance was determined using two-way
ANOVA followed by Sidak’s multiple comparison test, with a single pooled variance.
Concentration (MIC) assay
20% glycerol stocks of E. coli MG1655 pSU18 NDM-1 (E. coli NDM-1) and E. coli MG1655
pSU18 empty (E. coli empty) stored at -80 °C were used to streak nutrient agar plates. After
The MHBII culture growing both E. coli strains contained chloramphenicol
as an antibiotic resistance marker (2 µg/mL, equivalent to ¼ MICE. coli for chloramphenicol =
8 µg/mL). The resulting suspensions were each diluted 100 x (15 µL in 1.5 mL) in MHBII with
chloramphenicol (2 µg/mL), and the resultant suspensions were incubated to OD600 = 0.6-1.2
To generate the two-dimensional drug interaction matrix, four 96-well source plates were
prepared. In Source Plates A1-3, the three analytes were subjected to a two-fold serial dilution
across the rows (A to G), maintaining constant concentrations within each row and achieving
a vertical concentration gradient. In parallel, Source Plate B was prepared by diluting
meropenem in a two-fold series across the Columns (9 to 2), generating a horizontal
concentration gradient across the plate. Equal volumes (1 µL) from one of the source plates A
and source plate B were transferred into a 96-well assay plate to establish the checkerboard
layout with a 50X dilution into MHBII (50 μL total volume).
The prepared bacterial cells were diluted to OD600 = 0.01. Each prepared checkerboard plate
was then inoculated with 50 μL per well of bacterial culture in MHBII with ½ MIC of
chloramphenicol (100 μL total volume per well , final OD600 = 0.005). Control wells were
included to account for drug-free growth, sterility, and single-agent gradient exposures. Dark
For the light condition, the
OD600 was measured on a BMG Labtech CLARIOstar plate reader. The MIC is the first value
at which no growth is seen. All E. coli NDM-1 data were averaged from 3 biological replicates,
The test system of data set [7] is HCT116.
Data set [8] has as its system HEK293T.
The subject of data set [9] is HaCaT.
The test system of data set [10] is HeLa.
Data set [11] has as its system HepG2.
The test system of data set [12] is RAW264.7. The conditions noted are these: RAW.
The test system of data set [13] is hTERT RPE-1.
Data set [14] has as its system seven mammalian cell lines. The conditions noted are these: panel of seven mammalian cell lines including HepG2.
For data set [15], the target named is T2, NDM-1 in E. coli NDM-1. Put plainly: cell-based. The conditions noted are these: E. coli NDM-1, nitrocefin.
Method: as §24, §25, §26, §27, §28, §29, §30, §31, §32, §33, §34, §35
The target of data set [16] is T1, NDM-1. Put plainly: biochemical.
Method: as §12, §13, §14, §15, §16, §17, §18, §19, §20, §21, §22, §23
Data set [17] concerns the target T1, NDM-1. Kind of data set: biochemical. The conditions noted are these: recombinant NDM-1, nitrocefin.
Data set [18] can be described thus: Chromatographic LogD measurement. The conditions noted are these: reversed-phase HPLC, Eclipse Plus C18 column, pH 7.4.
Method: ChromLogD measurements were adapted from a previously reported procedure.3 The reversed
phase HPLC measurements were measured using an Agilent 1100 Series, equipped with an
Eclipse Plus C18 column 4.6 x 50 mm, using a gradient of 50 mM ammonium acetate/CH3CN
0 – 100% over 10 min. The mobile phase was adjusted to pH = 7.4 using concentrated sodium
The retention times (log k’) of seven commercially available compounds which cover the log
D range from -0.02 to 3.18 (theophylline, 5-phenyl-1H-tetrazole, benzimidazole, colchicine,
acetophenone, indole, propiophenone, butyrophenone, and benzophenone) were calculated
using the below equation, where tR is the retention time of the compound and t0 is the column
dead time, measured by injecting uracil (0.853 min).
The average retention times (tR) of two consecutive injections of sample were used to calculate
the log k’ values, which were then used to create the standard curve (Figure S1).
The target of data set [19] is HDAC1 (Homo sapiens, UniProt Q13547). Put plainly: HDAC1 deacetylation assay (H3K9Ac, mass spectrometry). The conditions noted are these: 100 µM compound, 3 hours, 37°C.
Chain of HDAC1 (Q13547 whole entry, species assumed): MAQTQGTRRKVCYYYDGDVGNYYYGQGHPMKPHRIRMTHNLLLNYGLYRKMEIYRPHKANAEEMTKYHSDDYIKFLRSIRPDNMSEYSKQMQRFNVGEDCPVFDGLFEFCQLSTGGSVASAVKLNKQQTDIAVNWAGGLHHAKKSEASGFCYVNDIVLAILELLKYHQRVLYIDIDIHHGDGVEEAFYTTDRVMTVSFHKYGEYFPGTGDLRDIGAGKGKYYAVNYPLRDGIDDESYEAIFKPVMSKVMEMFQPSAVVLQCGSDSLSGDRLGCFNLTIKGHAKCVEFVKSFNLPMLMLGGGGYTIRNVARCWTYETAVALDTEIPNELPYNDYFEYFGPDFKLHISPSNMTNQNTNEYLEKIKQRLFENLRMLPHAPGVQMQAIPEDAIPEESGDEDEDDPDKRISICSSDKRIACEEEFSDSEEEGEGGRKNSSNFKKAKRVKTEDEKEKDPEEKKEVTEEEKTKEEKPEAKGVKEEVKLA
Method: 1.7.1 HDAC1 Assay conditions:
The results of the assay were analysed using HRMS.
HDAC1 was included (-HDAC1).
For data set [20] the following is noted: organic photosensitizers; cited from earlier work.
[21] abbreviates: read-out: Change in melting temperature (ΔT) of NDM-1.

Where “and” joins values, the source holds several entries; their conditions need not be identical. Equal entries are not always repeated. Where two headings read alike, the source gives them in different places. Bounds are passed on as bounds.

As for `C[C@@H](O)[C@H]1C(=O)N2C(C(=O)O)=C(S[C@@H]3CN[C@H](C(=O)N(C)C)C3)[C@H](C)[C@H]12` [Meropenem, meropenem], the Accumulation result in data set [1] (75 μM, 10 min) was “not detectable”; in [2] (75 μM, 10 min), 150 nM/OD600; in [2] (75 μM, 10 min, listed as meropenem trihydrate), 0 nM/OD600.

A word on the IC50: it is the point on the concentration scale where inhibition reaches its midpoint. Usually Kd stands for the free concentration of one partner at which half of the binding sites on the other are occupied at equilibrium, for simple one-to-one binding. The term chromatographic logD denotes a lipophilicity value derived from retention on a column. Take `Cl.Cl.Nc1cccc(-c2cc(C(=O)O)nc(C(=O)O)c2)c1` [N1, 4-(3-amino-phenyl) dipicolinic acid]: the Accumulation in [1] (320 μM, 1 h) amounted to 731 nM/OD600; in [2] (320 μM, 1 h) it was 609 nM/OD600. Besides, in [3], the “Effect on melting temperature of NDM-1” value is “destabilize the protein in a dose-dependent manner”. Besides, the “Fold improvement in NDM-1 inhibition, light vs dark” value in data set [4] is reported as “no enhancement of potency”. The “Fold improvement in potency, light vs dark” value in data set [5] is reported as “no change in potency”. The “Fold change in Meropenem MIC” value is on record as 0 fold in data set [6] (compound 5 μM, dark); 0.66 fold in data set [6] (compound 5 μM, light 450 nm, 60 J cm^-2); 0 fold in data set [6] (compound 10 μM, dark); 0.66 fold in data set [6] (compound 10 μM, light 450 nm, 60 J cm^-2); 0 fold in data set [6] (compound 20 μM, dark); 1.3 fold in data set [6] (compound 20 μM, light 450 nm, 60 J cm^-2). For the same compound, the “Fold change in Meropenem MIC” value in data set [6] (compound 40 μM, dark) worked out at 0.66 fold; in data set [6] (compound 40 μM, light 450 nm, 60 J cm^-2), 2.0 fold; in [6] (compound 80 μM, dark), 2.6 fold; in data set [6] (compound 80 μM, light 450 nm, 60 J cm^-2), 6.6 fold; in [6] (compound 160 μM, dark), 35 fold; in [6] (compound 160 μM, light 450 nm, 60 J cm^-2), 43 fold. For the same compound, the LD50 was > 50 µM in data set [7] (HCT116, 24 h); > 50 µM in data set [7] (HCT116, 48 h); > 50 µM in [8] (24 h); > 50 µM in data set [8] (48 h); > 50 µM in data set [9] (24 h); > 50 µM in [9] (48 h). Also, the LD50 in data set [10] (24 h) is > 50 µM; in data set [10] (48 h), > 50 µM; in data set [11] (HepG2, 24 h), > 50 µM; in data set [11] (HepG2, 48 h) it was > 50 µM; in data set [12] (24 h), > 50 µM; in [12] (48 h) it was > 50 µM. Besides, the LD50 in data set [13] (RPE1, 24 h) was > 50 µM; in data set [13] (RPE1, 48 h) it was > 50 µM. Besides, the “Cytotoxicity (no cytotoxicity up to)” value in [14] is > 50 µM. The IC50 was 13.2 µM and 13 µM in [15] (IC50(dark), dark); 11.1 µM in data set [15] (IC50(light), light 450 nm, 60 J cm^-2); 3.2 ± 0.08 µM in data set [17] (IC50(dark), dark); 3.1 µM in [17] (IC50(light), light 450 nm, 20 J cm^-2). Binding in data set [16] was characterised by a dissociation constant (Kd) of 35 µM. Besides, the ΔTm at 4 µM in data set [16] (setting [21]) was -0.6 °C. Moreover, the ΔTm at 16 µM in [16] (setting [21]) was -3.4 °C. In data set [16] (setting [21]), the ΔTm at 63 µM was -8.8 °C. The chromatographic logD in data set [18] was -1.32. For the same compound, the “Inhibition of HDAC1” value in data set [19] is “do not inhibit”.

Regarding `CN[C@@H]1C[C@H]2O[C@@](C)([C@@H]1OC)n1c3ccccc3c3c4c(c5c6ccccc6n2c5c31)C(=O)NC4` [Staurosporine], the LD50 came out at 0.08 µM in [7] (HCT116, 24 h); 0.02 µM in data set [7] (HCT116, 48 h); 0.07 µM in data set [8] (24 h); 0.01 µM in data set [8] (48 h); 0.05 µM in data set [9] (24 h); 0.01 µM in [9] (48 h). The LD50 came to 0.05 µM in data set [10] (24 h); 0.02 µM in data set [10] (48 h); 0.3 µM in data set [11] (HepG2, 24 h); 0.09 µM in [11] (HepG2, 48 h); 0.03 µM in data set [12] (24 h); 0.01 µM in data set [12] (48 h). Moreover, the LD50 was 0.01 µM in data set [13] (RPE1, 24 h) and 0.01 µM in data set [13] (RPE1, 48 h).

On to `C=CC1=C(C)c2cc3[nH]c(cc4nc(cc5[nH]c(cc1n2)c(C)c5CCC(=O)O)C(CCC(=O)O)=C4C)c(C)c3C=C` [protoporphyrin IX], for which, in [20], the Excited state lifetime was 13 ns.

Consider porfimer sodium, for which the Excited state lifetime in data set [20] is recorded as 14 ns.
